# Assay: Microindentation as a measure of enamel hardness: softening by 1.0% w/w citric acid pH 3.8 after 120 s treatment
# Parameters: species or system human
# Conditions: FIG. 1
# Description: Human enamel chips were mounted in acrylic resin and polished flat using silicon carbide paper (1200 and 2400 grit). The specimens were then randomised and divided into three treatment groups (n=6). The treatment groups were 300 ppm fluoride (sodium fluoride); glycerin-coated titanium dioxide (with a mean particle size of 20 nm) aqueous suspension, 2.5% w/v (UV Titan M212, Kemira, Aston Chemicals); and deionised water. The baseline hardness of each specimen was determined using a Struers Duramin Microindentor, fitted with a Vickers diamond indenter. Hardness values were expressed as Vickers Hardness Numbers (VHN). A load of 1.961N was applied to the specimens, with a dwell time of 20 seconds.
# Specimens were placed in 30 ml of one of the three test solutions with agitation for 120 seconds, before rinsing with deionised water. After treatment, microhardness measurements were repeated. Erosion was then performed by incubating the mounted specimens for 30 minutes in 10 ml of a 1.0% w/w solution of citric acid, pH 3.8. Specimens were removed from the erosive challenge at 10 minute intervals and the surface microhardness determined.
# The values for enamel hardness have been normalised relative to the individual baseline microhardness values, thus data at subsequent time points reflects softening of the enamel. The error bars in FIG. 1 represent standard deviations.
# The treatments tested in this study were: 2.5% w/v titanium dioxide aqueous suspensions, specifically 20 nm glycerin-coated titanium dioxide (UV Titan M212, Kemira, Aston Chemicals), 20 nm PVP-coated titanium dioxide (UV Titan M263, Kemira, Aston Chemicals), 17 nm Stearic acid-coated titanium dioxide (UV Titan M160, Kemira, Aston Chemicals) and 14 nm uncoated titanium dioxide (UV Titan X140, Kemira, Aston Chemicals). A glycerin only negative control was used in the study.
structure (smiles),measurement,setting,value
"[F-].[Na+] [300 ppm fluoride, sodium fluoride]",enamel softening (microhardness normalised to baseline) during citric acid exposure,"1.0% w/w citric acid pH 3.8, up to 30 min, 120 s treatment","softened during the period in which they were exposed to citric acid, increasingly so as the incubation time increased"
same,enamel softening versus water-treated enamel,after 20 and 30 mins in citric acid,softened significantly less than enamel treated with water
same,"extent of enamel softening, fluoride versus nanoparticle suspension",after 20 mins citric acid exposure,equivalent in their extent of softening

# From patent publication US20100291163A1, “ORAL CARE COMPOSITION COMPRISING NANOPARTICULATE TITANIUM DIOXIDE” (priority 2006, published 2010)
